Test results as given in patent US20110059076A1, “HUMAN SERUM ALBUMIN LINKERS AND CONJUGATES THEREOF” (priority 2008, published 2011).
Entries after “also recorded” stand apart in the source; their conditions may differ.

Columns and labels:
[1] = tested on: control BT-474-M3 breast cancer cell xenografts; assay: BT-474-M3 shControl xenografts; type: in vivo, nude mice; conditions: 30 mg/kg B2B3-1 every 3 days or 10 mg/kg trastuzumab every week, i.p.
Method: ShRNA technology is applied to knock out the activity of the tumor suppressor gene phosphatase and tensin homolog (PTEN) in BT-474-M3 breast cancer cells. Briefly, cultured BT-474-M3 cells are transfected with shPTEN or shControl RNA by retroviral transfection. Transfected cells with reduced PTEN are selected using FACS and subsequently injected subcutaneously into the right flank of nude mice to establish xenograft tumors. Cells transfected with a control vector are injected into the left flank of the same mouse. […] All injections are done i.p.

[2] = tested on: ErbB3 phosphorylation in ZR75-1 breast cancer cells; assay: agonistic activity: pErbB3 ELISA in ZR75-1 cells without HRG; type: cell-based; conditions: serum starved ZR75-1 cells, 1 μM, 24 hours, no HRG
Method: Except as noted, ELISA reagents for total and phospho-ErbB3 ELISAs are purchased from R&D Systems as DUOSET kits. 96-well NUNC MAXISORB plates are coated with 50 μl of an antibody and incubated overnight at room temperature. Next morning, plates are washed 3 times with 1000 μl/well in a BIOTEK plate washer with Dulbecco's phosphate buffered saline without calcium or magnesium (PBS) with added Tween detergent (PBST) (0.05% Tween-20). […] The plates are washed 3 times with 1000 μl/well in the BIOTEK plate washer with PBST. Cells are grown at 37° C. and 5% carbon dioxide, washed with cold PBS, then harvested with mammalian protein extract (MPER) lysis buffer (Pierce, 78505) to which 150 mM NaCl, 5 mM sodium pyrophosphate, 10 uM bpV (phen), 50uM phenylarsine, 1 mM sodium orthovanadate, and protease inhibitor cocktail (Sigma, P2714) is added. 50 μL of cell lysates and standards diluted in 50% Lysis buffer and 1% BSA are used in duplicates for further processing. Samples are incubated for 2hrs at 4° C. on a plate shaker and washed as before. About 50 μl of a detection antibody diluted in 2% BSA, PBST is added and incubated for about 1-2 hrs at room temperature. […] About 50 μL of SUPERSIGNAL ELISA Pico (Thermo Scientific) substrate is added and the plate is read using a FUSION plate reader. […]
Cells are lysed and the pErbB3 content of the lysates is assessed by ELISA generally as described above.

BT-474-M3 xenograft = assay: combination with trastuzumab in BT-474-M3 xenograft model; type: in vivo, athymic nude mice (nu/nu); conditions: single agent
Method: Mice receive a subcutaneous estrogen-releasing implant in the opposite flank (0.72 mg pellet, 60 day, slow-release, Innovative Research of America, Sarasota, Fla.) 24 h prior to the injection of 20×10^6 human BT-474-M3cells in PBS. Dosing is initiated when tumor growth is established (tumor volumes of approximately 400 mm^3). Tumors are measured twice a week using digital calipers. Tumor volume is calculated using the formula: π/6×(W^2×L), where W is the short diameter and L is the long diameter.

BT-474 cells = assay: cell impedance proliferation assay (RT-CES); type: cell-based; conditions: calculated 68 hours after treatment, read-out: IC50 of inhibition of cell impedance
[3] = tested on: human BT-474-M3 xenografts; assay: dose response in BT-474-M3 breast cancer xenograft model; type: in vivo, nude mice; conditions: 0.3, 1, 3, 10, 30 or 90 mg/kg i.p. every 3 days, 12 doses
Method: All doses are administered interperitoneally (i.p.). Tumor size is measured twice a week and the corresponding tumor volume is calculated.

[4] = tested on: pErbB3 and pAKT in BT-474-M3 cells; assay: Western blot of heregulin induced ErbB3 activity in BT-474-M3 cells; type: cell-based; conditions: BT-474-M3, 24 hours, 10 nM or 100 nM, with or without 5 nM HRG 1β EGF
Text: Lysates are subjected to immunoblot analysis for ErbB3, pErbB3, AKT, and pAKT.

[5] = tested on: MALME-3M melanoma cells (ErbB2 and ErbB3 receptors); assay: cell binding by flow cytometry, apparent binding affinity; conditions: MALME-3M cells
Method: Cell binding is assessed by flow cytometry and apparent binding affinities are determined for each molecule. Control cells are incubated with secondary antibody alone.

[6] = target: T1, recombinant extracellular domain of ErbB2 (Homo sapiens, UniProt P04626); assay: specificity competition ELISA on ErbB2-coated plates; conditions: half-maximal binding concentration of B2B3-1
T1 construct: Plates are coated with the recombinant extracellular domain of either ErbB2 or ErbB3
Text: Plates are coated with the recombinant extracellular domain of either ErbB2 or ErbB3.

[7] = tested on: ACHN (human kidney adenocarcinoma) xenograft; assay: ACHN xenograft model; type: in vivo, mice; conditions: ACHN (4.5×10^4 ErbB2 receptors/cell), 30 mg/kg every 3 days
Text: Calu-3 (human lung adenocarcinoma; FIG. 17A), SKOV-3 (human ovarian adenocarcinoma; FIG. 17B), NCI-N87 (human gastric carcinoma; FIG. 17C), ACHN (human kidney adenocarcinoma; FIG. 17D), and MDA-MB-361 (human breast adenocarcinoma; FIG. 17E) xenograft model are shown.

IC50 (BT-474 cells): 33 nM
Substance: B2B3-1: bispecific scFv antibody fusion: anti-ErbB3 scFv H3 and anti-ErbB2 scFv B1D2 joined by a modified human serum albumin (HSA) linker
size of tumors formed by control BT-474-M3 cells [1]: promoted a reduction | levels of phosphorylated ErbB3 with B2B3-1 alone (agonistic activity) [2]: comparable to the levels in untreated cells; also recorded: does not stimulate ErbB3 phosphorylation | mice with completely regressed tumors (BT-474-M3 xenograft; B2B3-1 3 mg/kg q3d): 0 out of 10 | mice with completely regressed tumors (BT-474-M3 xenograft; B2B3-1 10 mg/kg q3d): 0 out of 10 | complete regressions [3]: Complete regressions were observed in each of the B2B3-1 treatment groups except mice treated with the lowest dose | tumor size compared to the control group [3]: significant reduction | inhibition of pAKT [4]: in a ligand dependent manner | inhibition of pErbB3 [4]: in a ligand dependent manner | apparent binding affinity KD [5]: significant increase in apparent binding affinity | blocking of binding to ErbB2-coated plates by soluble extracellular domains of EGFR, ErbB2, ErbB3 or ErbB4 [6]: only soluble ErbB2 extracellular domain blocked; also recorded: binds specifically | tumor size reduction [7]: worked less well
